Test results as given in PubChem BioAssay AID192 (DTP/NCI, 2004).
Where “and” joins values, the source holds several entries; their conditions need not be identical. Identical values can stand only once. Inconclusive results and toxic doses are left out. How the source made its calls: active means survival T/C of 150% or more; inactive means T/C below 125% in these data.

Test system: BDF1 mice, B16 melanoma ip, median survival T/C
Experiment: NCI In Vivo Anticancer Drug Screen. Data for tumor model B16 Melanoma (intraperitoneal) in B6D2F1 (BDF1) mice
Conditions: endpoint: median survival time, higher = longer survival
Procedure, shortened: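 In this screen, activity was judged from survival or tumor size in treated versus vehicle-treated tumor-bearing mice, reported as T/C.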

[1] = dose: 25.0 mg/kg/injection, schedule: Q01DX009 (ip), vehicle: Klucel (hydroxypropylcellulose) (HPC)
[2] = dose: 100.0 mg/kg/injection, schedule: Q01DX009 (ip), vehicle: Klucel (hydroxypropylcellulose) (HPC)
[3] = dose: 50.0 mg/kg/injection, schedule: Q01DX009 (ip), vehicle: saline
[4] = dose: 100.0 mg/kg/injection, schedule: Q01DX009 (ip), vehicle: saline
[5] = dose: 200.0 mg/kg/injection, schedule: Q01DX009 (ip), vehicle: saline
[6] = dose: 200.0 mg/kg/injection, schedule: Q01DX009 (ip), vehicle: Klucel (hydroxypropylcellulose) (HPC)
[7] = dose: 400.0 mg/kg/injection, schedule: Q01DX009 (ip), vehicle: Klucel (hydroxypropylcellulose) (HPC)

Measured: T/C

Cc1ccc[c]([Hg][Cl])c1N=Nc1ccccc1
inactive: dose: 0.39 mg/kg/injection, schedule: Q01DX009 (ip), vehicle: saline with Tween-80 101 % of control | dose: 0.78 mg/kg/injection, schedule: Q01DX009 (ip), vehicle: saline with Tween-80 100 % of control | dose: 1.56 mg/kg/injection, schedule: Q01DX009 (ip), vehicle: saline with Tween-80 97 % of control | dose: 3.12 mg/kg/injection, schedule: Q01DX009 (ip), vehicle: saline with Tween-80 97 % of control | dose: 6.25 mg/kg/injection, schedule: Q01DX009 (ip), vehicle: saline with Tween-80 94 % of control

O=c1sc(N=Nc2ccccc2)nn1-c1ccccc1
inactive: dose: 100.0 mg/kg/injection, schedule: Q04DX003 (ip), vehicle: Klucel (hydroxypropylcellulose) (HPC) 94 % of control | dose: 200.0 mg/kg/injection, schedule: Q04DX003 (ip), vehicle: Klucel (hydroxypropylcellulose) (HPC) 89 % of control

NNC(=S)N/N=C/c1ccc([N+](=O)[O-])s1
inactive: [1] 88 % of control | [2] 89 % of control

CCCn1c(=S)[nH]c2ccccc2c1=O
inactive: [1] 120 % of control | dose: 25.0 mg/kg/injection, schedule: Q01DX009 (ip), vehicle: saline with Tween-80 100 % of control | dose: 50.0 mg/kg/injection, schedule: Q01DX009 (ip), vehicle: Klucel (hydroxypropylcellulose) (HPC) 100 % of control | dose: 50.0 mg/kg/injection, schedule: Q01DX009 (ip), vehicle: saline with Tween-80 92 % of control | dose: 66.0 mg/kg/injection, schedule: Q01DX009 (ip), vehicle: saline with Tween-80 100 % of control | [2] 86 % of control and 102 % of control | dose: 100.0 mg/kg/injection, schedule: Q01DX009 (ip), vehicle: saline with Tween-80 87 % of control and 94 % of control | dose: 150.0 mg/kg/injection, schedule: Q01DX009 (ip), vehicle: saline with Tween-80 86 % of control

Cc1cc(C)[nH]c(=S)n1
inactive: [3] 95 % of control | [4] 95 % of control | [5] 106 % of control

COc1ccc(CCNC(=S)NCCc2ccc(OC)c(OC)c2)cc1OC
inactive: [2] 86 % of control | [6] 92 % of control | [7] 115 % of control

CCOC(=O)c1ccc(NC(=O)Nc2nc(C)cs2)cc1
inactive: dose: 25.0 mg/kg/injection, schedule: Q01DX009 (ip), vehicle: distilled water + Tween-80 111 % of control | dose: 200.0 mg/kg/injection, schedule: Q01DX009 (ip), vehicle: distilled water + Tween-80 120 % of control

COc1nc(=O)n(C2C=CC(=O)O2)cc1F (configuration not stated)
inactive: dose: 6.25 mg/kg/injection, schedule: Q01DX009 (ip), vehicle: saline 101 % of control | dose: 12.5 mg/kg/injection, schedule: Q01DX009 (ip), vehicle: saline 95 % of control | dose: 25.0 mg/kg/injection, schedule: Q01DX009 (ip), vehicle: saline 89 % of control | [3] 87 % of control | [4] 91 % of control

CCc1ccc(NC(=O)Nc2ccc(Cl)cc2)cc1
inactive: dose: 100.0 mg/kg/injection, schedule: Q01DX009 (ip), vehicle: gum acacia 89 % of control | dose: 200.0 mg/kg/injection, schedule: Q01DX009 (ip), vehicle: gum acacia 98 % of control | dose: 400.0 mg/kg/injection, schedule: Q01DX009 (ip), vehicle: gum acacia 93 % of control

COc1cc2c(cc1OC)C(C=C(c1ccccc1)c1ccccc1)N(C)CC2 (configuration not stated)
inactive: dose: 12.5 mg/kg/injection, schedule: Q04DX003 (ip), vehicle: Klucel (hydroxypropylcellulose) (HPC) 97 % of control | dose: 25.0 mg/kg/injection, schedule: Q04DX003 (ip), vehicle: Klucel (hydroxypropylcellulose) (HPC) 97 % of control | dose: 50.0 mg/kg/injection, schedule: Q04DX003 (ip), vehicle: Klucel (hydroxypropylcellulose) (HPC) 100 % of control

COc1ccc(/C=C/c2nc3ccccc3nc2/C=C/c2ccc(OC)c(OC)c2)cc1OC
inactive: dose: 6.25 mg/kg/injection, schedule: Q01DX009 (ip), vehicle: carboxymethylcellulose (CMC) 99 % of control | dose: 12.5 mg/kg/injection, schedule: Q01DX009 (ip), vehicle: carboxymethylcellulose (CMC) 92 % of control | dose: 25.0 mg/kg/injection, schedule: Q01DX009 (ip), vehicle: carboxymethylcellulose (CMC) 89 % of control

CCOC(=O)C(O)C(C#N)c1ccccc1 (configuration not stated)
inactive: dose: 100.0 mg/kg/injection, schedule: Q01DX009 (ip), vehicle: other 98 % of control | dose: 200.0 mg/kg/injection, schedule: Q01DX009 (ip), vehicle: other 99 % of control | dose: 400.0 mg/kg/injection, schedule: Q01DX009 (ip), vehicle: other 107 % of control

O=C(Nc1ccc(Br)cc1)c1ccc(Cl)c(Cl)c1
inactive: [2] 118 % of control | [6] 114 % of control | [7] 114 % of control

CC1(C)COC(c2ccccc2)=N1
inactive: [4] 123 % of control | [5] 115 % of control
